Results as given in patent publication US10702526B2, “Inhibitors of immune checkpoint modulators and related methods” (eFFECTOR Therapeutics, Inc., priority 2015, dated 2020).

How the values were obtained:
[1] = system: PD-1 expression on Jurkat cells; assay: PD-1 expression on PHA/PMA-activated Jurkat T cells (flow cytometry); assay type: cell-based, human; settings: Jurkat T cell assay, MNK-specific inhibitors
Description: (§1) To examine the effect of MNK-specific inhibitors on PD-1 expression, Jurkat cells (Clone E6.1, ATCC, transformed T cells) were used, which express PD-1 when activated through T cell receptor (TCR) signaling. Briefly, Jurkat cells were grown in 1×RPMI with 1× Pen/Strep, and 10% FBS, then about 3×10^6 Jurkat cells were activated in presence of 1 μg/mL PHA (Sigma) and 50 ng/mL PMA (Sigma). Test Cells were treated simultaneously with various concentrations of MNK-specific inhibitor Compound 107 (0, 0.01, 0.1, 1, 3 and 10 μM). After 48 hours, culture supernatants were harvested and examined via sandwich ELISA for the presence of IL-2 using human IL-2 ELISA DuoSet® (R&D Systems, Minneapolis, Minn.). The level of PD-1 on Jurkat cells was examined by incubating cells with fixable dead cell stain (1:20,000; BD Biosciences, San Jose, Calif.) for 15 minutes at 4° C., washed twice with flow staining buffer (1×PBS, 4% FBS and 1 mM EDTA), incubated with human FcR block, then contacted with allophycocyanin (APC) conjugated anti-PD-1 antibody (Biolegend, San Diego, Calif.) for 30 minutes at 4° C., washed two times with flow buffer, and finally cells were fixed with fixation buffer for 20 minutes at 4° C. After fixation, cells were washed twice with flow buffer and re-suspended in flow buffer and assessed for fluorescence using BD Accuri C6 flow cytometer. Data were analyzed using the C6 cytometer software (BD Biosciences, San Jose, Calif.).

Jurkat cells = assay: Jurkat T cell viability (fixable dead cell stain); assay type: cell-based; settings: Jurkat T cell assay, MNK-specific inhibitors
Description: as §1

[2] = system: IL-10 production in primary T cells; assay: IL-10 production by activated primary T cells; assay type: cell-based, human

Compound | % PD-1 + Inhibition [1] | Cell Death (Jurkat cells) | % IL-10 Inhibition [2]
Cc1cc(Nc2cc(N)ncn2)c(=O)n2c1C(=O)NC21CCCC1.Cl [Compound 98] | +++ (+++ = 50-75%) | − (− = 0-10%) | 
Cc1cc(Nc2ncnc(N)c2C)cc2c1C(=O)NC21CCCCC1 [Compound 440] | ++++ (++++ = 75-100%) | − (− = 0-10%) | 
Cc1cc(Nc2ncnc(N)c2Cl)cc2c1C(=O)NC21CCCCC1 [Compound 462] | ++++ (++++ = 75-100%) | + (+ = 10-25%) | 
Cc1cc(Nc2ncnc(N)c2Cl)c(=O)n2c1C(=O)NC21CCCCC1 [Compound 474] | +++ (+++ = 50-75%) | − (− = 0-10%) | ++++ (++++ = 75-100%)
Cc1cc(Nc2ncnc(N)c2C)c(=O)n2c1C(=O)NC21CCN(CC(F)F)CC1 [Compound 590] | ++ (++ = 25-50%) | − (− = 0-10%) | ++++ (++++ = 75-100%)
Cc1cc(Nc2ncnc(N)c2Cl)c(=O)n2c1C(=O)NC21CCN(CC(F)F)CC1 [Compound 611] | ++ (++ = 25-50%) | − (− = 0-10%) | 
Cc1cc(Nc2ncnc(N)c2C)nc2c1C(=O)NC21CCCCC1 [Compound 622] | ++++ (++++ = 75-100%) | − (− = 0-10%) | 
Cc1cc(Nc2ncnc(N)c2Cl)nc2c1C(=O)NC21CCCCC1 [Compound 624] | ++++ (++++ = 75-100%) | + (+ = 10-25%) | 
Cc1cc(Nc2ncnc(N)c2C)c(=O)n2c1C(=O)NC21CCOCC1 [Compound 626] | ++ (++ = 25-50%) | − (− = 0-10%) | 
Cc1cc(Nc2ncnc3[nH]ccc23)cc2c1C(=O)NC21CCCCC1 [Compound 637] | ++++ (++++ = 75-100%) | ++ (++ = 25-50%) | 
Cc1cc(-n2ccc3c(N)ncnc32)nc2c1C(=O)NC21CCCCC1 [Compound 652] | ++++ (++++ = 75-100%) | − (− = 0-10%) | 
Cc1cc(Nc2ncnc(N)c2Cl)c(=O)n2c1C(=O)NC21CCCNC1 (stereo not shown) [Compound 750] | +++ (+++ = 50-75%) | − (− = 0-10%) | ++++ (++++ = 75-100%)
Cc1cc(Nc2ncnc(N)c2Cl)c(=O)n2c1C(=O)NC21CCN(C2CC2)CC1 [Compound 752] | − (− = 0-10%) | − (− = 0-10%) | 
Cc1cc(Nc2ncnc(N)c2C)c(=O)n2c1C(=O)NC21CCN(CCC(F)(F)F)CC1 [Compound 753] | − (− = 0-10%) | − (− = 0-10%) | 
Cc1cc(Nc2ncnc(N)c2Cl)c(=O)n2c1C(=O)NC21CCN(CCC(F)(F)F)CC1 [Compound 775] | − (− = 0-10%) | − (− = 0-10%) | 
CCCN1CCC2(CC1)NC(=O)c1c(C)cc(Nc3ncnc(N)c3Cl)c(=O)n12 [Compound 776] | + (+ = 10-25%) | − (− = 0-10%) | 
Cc1cc(Nc2ncnc(N)c2OCCN)c(=O)n2c1C(=O)NC21CCCCC1 [Compound 827] | ++ (++ = 25-50%) | − (− = 0-10%) | 
Cc1cc(Nc2ncnc(N)c2C)c(=O)n2c1C(=O)NC21CCCN(C)C1 (stereo not shown) [Compound 917] | ++ (++ = 25-50%) | + (+ = 10-25%) | 
Cc1cc(Nc2ncnc(N)c2Cl)c(=O)n2c1C(=O)N[C@]21CCCNC1 [Compound 969] | +++ (+++ = 50-75%) | − (− = 0-10%) | 
Cc1cc(Nc2ncnc(N)c2Cl)c(=O)n2c1C(=O)N[C@@]21CCCNC1 [Compound 970] | +++ (+++ = 50-75%) | − (− = 0-10%) | 
Cc1cc(Nc2ncnc(N)c2Cl)c(=O)n2c1C(=O)NC21CCN(C)CC1(C)C (stereo not shown) [Compound 1008] | +++ (+++ = 50-75%) | ++ (++ = 25-50%) | 
Cc1cc(Nc2ncnc(N)c2Cl)c(=O)n2c1C(=O)NC21CC(C)N(C)C(C)C1 (stereo not shown) [Compound 1031] | +++ (+++ = 50-75%) | +++ (+++ = 50-75%) | 
Cc1cc(Nc2ncnc(N)c2Cl)c(=O)n2c1C(=O)NC21CCN(C)C(C)(C)C1 (stereo not shown) [Compound 1053] | + (+ = 10-25%) | − (− = 0-10%) | 
Cc1cc(Nc2ncnc(N)c2Cl)c(=O)n2c1C(=O)NC21CNCCC1(C)C (stereo not shown) [Compound 1090] | +++ (+++ = 50-75%) | + (+ = 10-25%) | 
Cc1cc(Nc2ncnc(N)c2C)c(=O)n2c1C(=O)NC21CNCCC1(C)C (stereo not shown) [Compound 1091] | ++ (++ = 25-50%) | − (− = 0-10%) | 
Cc1cc(Nc2ncnc(N)c2C)c(=O)n2c1C(=O)NC21CCN(CC(F)F)CC1(C)C (stereo not shown) [Compound 1092] | ++ (++ = 25-50%) | − (− = 0-10%) | 
